# Like-named read-outs stand apart in the source and are kept apart here.
# Assays:
# Klebsiella pneumoniae = assay: Agar-plate diffusion assay, K. pneumoniae; type: cell-based; settings: for Antibacterial Activity Gram-Negative K. pneumoniae Clear Inhibition Zone: at the MID, disk diameter 6 mm; for Antibacterial Activity Gram-Negative K. pneumoniae MID: minimum dose that induced an obvious inhibition zone (1–1.5 mm), 6 mm disk
# Protocol: (§1) Staphylococcus aureus ATCC 6538 and Klebsiella pneumoniae were used for biological evaluation. Concentrations assayed ranged from 0.08 to 1.25 µg/disks. DMSO was used to dissolve the compounds, while vancomycin and oxacillin were used as positive controls for Staphylococcus aureus and gentamycin was used as a positive control for Klebsiella pneumoniae. The minimum inhibitory dose (MID, μg/disk) was defined as the minimum dose that induced an obvious inhibition zone (1–1.5 mm). The disk diameter was 6 mm.
# [1] = In vitro cytotoxicity assay (MTT); type: cell-based, human; settings: human
# Protocol: (§2) In vitro cytotoxicity was determined against human embryonic kidney (HEK293T) cells. The assay was performed in 96-well treated tissue culture plates. Cells were seeded in the wells (5000 cells in 100 µL media containing RPMI1640, FBS, penicillin and streptomycin) and incubated for 24 h. Samples were then added and plates were again incubated for 48 h. MTT was then added and the plates were incubated for 4 h at 37 °C. Formazan crystals formed were dissolved in EtOH and absorbances were read at λ = 595 nm. The result was analyzed by using Prism 9 software (Graphpad, San Diego, CA, USA) to obtain IC50 values.
# [2] = test system: Staphylococcus aureus ATCC 6538; assay: Agar-plate diffusion assay, S. aureus; type: cell-based; settings: for Antibacterial Activity Gram-Positive S. aureus Clear Inhibition Zone: at the MID, disk diameter 6 mm; for Antibacterial Activity Gram-Positive S. aureus MID: minimum dose that induced an obvious inhibition zone (1–1.5 mm), 6 mm disk
# Protocol: as §1
# [3] = test system: human embryonic kidney (HEK293T) cells; assay: In vitro cytotoxicity assay (MTT); type: cell-based
# Protocol: as §2
# Enterococcus faecium = test system: Enterococcus faecium; parameters: method as in PMID 27399938; settings: cited from earlier work
# Bsc-1 cells = test system: Bsc-1 cells; parameters: method as in PMID 27399938; settings: cited from earlier work
# Pseudomonas aeruginosa = test system: Pseudomonas aeruginosa; parameters: method as in PMID 27399938; settings: cited from earlier work
# Staphylococcus aureus = test system: Staphylococcus aureus; parameters: method as in PMID 27399938; settings: cited from earlier work
# Candida albicans = test system: Candida albicans; parameters: method as in PMID 27399938; settings: cited from earlier work
# Escherichia coli = test system: Escherichia coli; parameters: method as in PMID 27399938; settings: cited from earlier work
# [4] = Homo sapiens, HEK-293T, HEK293T cells, methylation and acetylation products, read-out: IC50 against HEK293T
# [5] = HEK293T cells, MTT, 48 h, read-out: Cytotoxicity HEK293T IC50
Compound,Antibacterial Activity Gram-Negative K. pneumoniae Clear Inhibition Zone (Klebsiella pneumoniae) [mm],Antibacterial Activity Gram-Negative K. pneumoniae MID (Klebsiella pneumoniae) [µg/Disk],Antibacterial Activity Gram-Positive S. aureus Clear Inhibition Zone [2] [mm],Antibacterial Activity Gram-Positive S. aureus MID [2] [µg/Disk],"IC50 [3, 4] [µg/mL]",also measured
"Oc1c(Br)cc(Br)cc1Oc1c(O)c(Br)c(Br)c(Br)c1Br [Compound 1, 2,3,4,5-tetrabromo-6-(3′, 5′-dibromo-2′-hydroxyphenoxy) phenol]",7.00 ± 0.00,0.078,7.17 ± 0.24,0.078,,IC50 at 48 h ([1]; Cytotoxicity HEK293T IC50): 16.2 ± 1.17 µM
COc1c(Br)c(Br)c(Br)c(Br)c1Oc1cc(Br)cc(Br)c1O [Compound 7],,,,,> 10,
"COc1c(Br)cc(Br)cc1Oc1c(Br)c(Br)c(Br)c(Br)c1OC [Compound 8, 2,3,4,5-tetrabromo-6-(3′,5′-dibromo-2′-methoxyphenoxy) anisole]",,,,,> 10,
"COc1c(Br)cc(Br)cc1Oc1c(Br)cc(Br)c(Br)c1OC [Compound 9, 2,3,5-tribromo-6-(3′,5′-dibromo-2′-methoxyphenoxy) anisole]",,,,,> 10,
"CC(=O)Oc1c(Br)c(Br)c(Br)c(Br)c1Oc1cc(Br)cc(Br)c1O [Compound 10, 2,3,4,5-tetrabromo-6-(3′,5′-dibromo-2′-hydroxyphenoxy) phenyl acetate]",,,,,> 10,
"CC(=O)Oc1c(Br)cc(Br)cc1Oc1c(Br)c(Br)c(Br)c(Br)c1OC(C)=O [Compound 11, 2,3,4,5-tetrabromo-6-(3′,5′-dibromo-2′-acetoxyphenoxy) phenyl acetate]",,,,,> 10,
"CC(=O)Oc1c(Br)c(Br)cc(Br)c1Oc1cc(Br)cc(Br)c1O [Compound 12, 2,3,5-tribromo-6-(3′, 5′-dibromo-2′-hydroxyphenoxy) phenyl acetate]",,,,,> 10,
"CC(=O)Oc1c(Br)cc(Br)cc1Oc1c(Br)cc(Br)c(Br)c1OC(C)=O [Compound 13, 2,3,5-tribromo-6-(3′,5′-dibromo-2′-acetoxyphenoxy) phenyl acetate]",,,,,> 10,
"Oc1cc(Br)cc(Br)c1Oc1cc(Br)cc(Br)c1O [Compound 16, 3,5-dibromo-6-(3′, 5′-dibromo-2′-hydroxyphenoxy) phenol]",7.50 ± 0.00,0.078,7.00 ± 0.00,0.078,,"MIC Enterococcus faecium (Enterococcus faecium): 1.6 to 3.1 µg/mL; IC50 ([3]; human, 48 h): 8.11 µM; IC50 at 48 h ([1]; Cytotoxicity HEK293T IC50): 8.65 ± 1.11 µM; IC50 against Bsc-1 cells (Bsc-1 cells): > 50 µg/mL; MIC Pseudomonas aeruginosa (Pseudomonas aeruginosa): > 50 µg/mL; MIC Staphylococcus aureus (Staphylococcus aureus): 1.25 to 1.6 µg/mL; MIC Candida albicans (Candida albicans): > 50 µg/mL; MIC Escherichia coli (Escherichia coli): 50 µg/mL"
"Oc1ccccc1Oc1ccccc1O [Compound 30, 2, 2′-oxydiphenol, reference compound]",,,,,,"IC50 at 48 h [1, 5]: > 198 µM"
"COc1cccc2c1C(=O)c1c(O)c3c(c(O)c1C2=O)C[C@@](O)(C(=O)CO)C[C@@H]3O[C@H]1C[C@H](N)[C@H](O)[C@H](C)O1 [Doxorubicin, reference compound]",,,,,,"IC50 at 48 h [1, 5]: 0.22 ± 0.09 µM"
Cc1onc(-c2ccccc2)c1C(=O)N[C@@H]1C(=O)N2[C@@H]1SC(C)(C)[C@@H]2C(=O)O [Oxacillin],7.33 ± 0.24,0.078,11.33 ± 0.24,< 0.078,,
CN[C@H](CC(C)C)C(=O)N[C@H]1C(=O)N[C@@H](CC(N)=O)C(=O)N[C@H]2C(=O)N[C@H]3C(=O)N[C@H](C(=O)N[C@H](C(=O)O)c4cc(O)cc(O)c4-c4cc3ccc4O)[C@H](O)c3ccc(c(Cl)c3)Oc3cc2cc(c3O[C@@H]2O[C@H](CO)[C@@H](O)[C@H](O)[C@H]2O[C@H]2C[C@](C)(N)[C@H](O)[C@H](C)O2)Oc2ccc(cc2Cl)[C@H]1O [Vancomycin],7.33 ± 0.24,0.078,7.00 ± 0.00,0.078,,
Gentamycin,7.33 ± 0.47,0.078,7.67 ± 0.47,0.078,,
